# Reference: patent US10301280B2 (Plexxikon Inc., priority 2012, dated 2019)
# Experiments:
# [1] = test system: BaF3-FL KIT D816V or BaF3-FL KIT V560G/D816V cell line; test: Cell-based assays of c-Kit mutant kinase activity (cell growth, ATPlite); details: at least one of the c-kit cell assays of Example 26
# Summary of the method: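 IC50 derived from ATP-content luminescence (ATPlite) after three-day compound exposure at 37° C., 5% CO2. Cells: BaF3 rendered growth-dependent on full-length human KIT D816V or V560G/D816V, 1×10^4 per well, RPMI plus 10% FBS; 8 points, 1:3 steps, maximum 10 μM final, 0.2% DMSO.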
# c-kit mutant D816V = c-kit mutant D816V (Homo sapiens (Human), UniProt P10721, D816V/DEL694-753); test: c-Kit mutant D816V biochemical assay (AlphaScreen); details: c-kit D816V biochemical inhibitory activity
# Summary of the method: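 His-tagged c-Kit D816V kinase domain (551-934, Δ694-753, E. coli) phosphorylating 30 nM biotin-(E4Y)10 at 10 μM ATP in HEPES pH 7.2 with Mg/Mn, 5% DMSO, 30 min at room temperature. PY20-acceptor/streptavidin-donor AlphaScreen detection after EDTA stop. IC50 from 8-point 1:3 titration.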
# Chain of c-kit mutant D816V (P10721 other isoform, or with tags, fused parts or gaps D816V/del 694-753): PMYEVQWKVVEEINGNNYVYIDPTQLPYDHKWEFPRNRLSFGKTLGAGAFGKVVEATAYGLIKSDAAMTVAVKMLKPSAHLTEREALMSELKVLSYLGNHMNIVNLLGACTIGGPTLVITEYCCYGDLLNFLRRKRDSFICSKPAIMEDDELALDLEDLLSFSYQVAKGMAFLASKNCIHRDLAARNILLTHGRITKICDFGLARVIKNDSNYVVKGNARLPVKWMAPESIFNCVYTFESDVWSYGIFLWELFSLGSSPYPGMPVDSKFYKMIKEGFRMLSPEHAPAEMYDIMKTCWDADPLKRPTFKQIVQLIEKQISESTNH
SMILES,IC50 [1],IC50 (c-kit mutant D816V)
"O=C(Nc1cnc2[nH]c(-c3ccccc3)cc2c1)c1[nH]ncc1Br [P-2005, 4-bromo-N-(2-phenyl-1H-pyrrolo[2,3-b]pyridin-5-yl)-1H-pyrazole-5-carboxamide]",< 10000 nM,0.0001 to 1 µM
"Cc1n[nH]c(C(=O)Nc2cnc3[nH]c(-c4ccccc4)cc3c2)c1C [P-2007, 3,4-dimethyl-N-(2-phenyl-1H-pyrrolo[2,3-b]pyridin-5-yl)-1H-pyrazole-5-carboxamide]",< 10000 nM,0.0001 to 1 µM
"Cc1[nH]nc(C(=O)Nc2cnc3[nH]c(-c4ccc(N5CCOCC5)cc4)cc3c2)c1C [P-2059, 4,5-dimethyl-N-[2-(4-morpholinophenyl)-1H-pyrrolo[2,3-b]pyridin-5-yl]-1H-pyrazole-3-carboxamide]",< 10000 nM,0.0001 to 1 µM
"Cc1n[nH]c(C(=O)Nc2cnc3[nH]c(C4=CCN(C(=O)C5CC5)C4)cc3c2)c1Cl [P-2060, 4-chloro-N-[2-[1-(cyclopropanecarbonyl)-2,5-dihydropyrrol-3-yl]-1H-pyrrolo[2,3-b]pyridin-5-yl]-3-methyl-1H-pyrazole-5-carboxamide]",< 10000 nM,0.0001 to 1 µM
"CC(=O)N1CC=C(c2cc3cc(NC(=O)c4[nH]nc(C)c4Cl)cnc3[nH]2)CC1 [P-2061, N-[2-(1-acetyl-3,6-dihydro-2H-pyridin-4-yl)-1H-pyrrolo[2,3-b]pyridin-5-yl]-4-chloro-3-methyl-1H-pyrazole-5-carboxamide]",< 10000 nM,0.0001 to 1 µM
"Cc1n[nH]c(C(=O)Nc2cnc3[nH]c(C4=CCN(C(=O)N5CCOCC5)C4)cc3c2)c1Cl [P-2062, 4-chloro-3-methyl-N-[2-[1-(morpholine-4-carbonyl)-2,5-dihydropyrrol-3-yl]-1H-pyrrolo[2,3-b]pyridin-5-yl]-1H-pyrazole-5-carboxamide]",< 10000 nM,0.0001 to 1 µM
"Cc1n[nH]c(C(=O)Nc2cnc3[nH]c(-c4cccc(N(C)C)c4)cc3c2)c1C [P-2064, N-[2-[3-(dimethylamino)phenyl]-1H-pyrrolo[2,3-b]pyridin-5-yl]-3,4-dimethyl-1H-pyrazole-5-carboxamide]",< 10000 nM,0.0001 to 1 µM
"Cc1n[nH]c(C(=O)Nc2cnc3[nH]c(-c4c(C)noc4C)cc3c2)c1C [P-2065, N-[2-(3,5-dimethylisoxazol-4-yl)-1H-pyrrolo[2,3-b]pyridin-5-yl]-3,4-dimethyl-1H-pyrazole-5-carboxamide]",< 10000 nM,0.0001 to 1 µM
"CNC(=O)c1ccc(-c2cc3cc(NC(=O)c4[nH]nc(C)c4C)cnc3[nH]2)cc1 [P-2067, 3,4-dimethyl-N-[2-[4-(methylcarbamoyl)phenyl]-1H-pyrrolo[2,3-b]pyridin-5-yl]-1H-pyrazole-5-carboxamide]",< 10000 nM,0.0001 to 1 µM
"Cc1[nH]nc(C(=O)Nc2cnc3[nH]c(-c4ccnc(N5CCN(C)CC5)c4)cc3c2)c1C [P-2069, 4,5-dimethyl-N-[2-[2-(4-methylpiperazin-1-yl)-4-pyridyl]-1H-pyrrolo[2,3-b]pyridin-5-yl]-1H-pyrazole-3-carboxamide]",< 10000 nM,0.0001 to 1 µM
"Cc1[nH]nc(C(=O)Nc2cnc3[nH]c(-c4cccc(N5CCOCC5)c4)cc3c2)c1C [P-2070, 4,5-dimethyl-N-[2-(3-morpholinophenyl)-1H-pyrrolo[2,3-b]pyridin-5-yl]-1H-pyrazole-3-carboxamide]",< 10000 nM,0.0001 to 1 µM
"Cc1n[nH]c(C(=O)Nc2cnc3[nH]c(C4=CCN(C(=O)CN5CCOCC5)CC4)cc3c2)c1C [P-2073, 3,4-dimethyl-N-[2-[1-(2-morpholinoacetyl)-3,6-dihydro-2H-pyridin-4-yl]-1H-pyrrolo[2,3-b]pyridin-5-yl]-1H-pyrazole-5-carboxamide]",< 10000 nM,0.0001 to 1 µM
"Cc1n[nH]c(C(=O)Nc2cnc3[nH]c(C4=CCN(C(=O)C(O)CO)CC4)cc3c2)c1C (stereo not drawn) [P-2074, N-[2-[1-(2,3-dihydroxypropanoyl)-3,6-dihydro-2H-pyridin-4-yl]-1H-pyrrolo[2,3-b]pyridin-5-yl]-3,4-dimethyl-1H-pyrazole-5-carboxamide]",< 10000 nM,0.0001 to 1 µM
"Cc1n[nH]c(C(=O)Nc2cnc3[nH]c(-c4cccc(N5CCCC5)c4)cc3c2)c1C [P-2079, 3,4-dimethyl-N-[2-(3-pyrrolidin-1-ylphenyl)-1H-pyrrolo[2,3-b]pyridin-5-yl]-1H-pyrazole-5-carboxamide]",< 10000 nM,0.0001 to 1 µM
"Cc1n[nH]c(C(=O)Nc2cnc3[nH]c(C4=CCC(N)CC4)cc3c2)c1C (stereo not drawn) [P-2080, N-[2-(4-aminocyclohexen-1-yl)-1H-pyrrolo[2,3-b]pyridin-5-yl]-3,4-dimethyl-1H-pyrazole-5-carboxamide]",< 10000 nM,0.0001 to 1 µM
"Cc1n[nH]c(C(=O)Nc2cnc3[nH]c(-c4ccc(C#N)c(N5CCOCC5)c4)cc3c2)c1C [P-2081, N-[2-(4-cyano-3-morpholino-phenyl)-1H-pyrrolo[2,3-b]pyridin-5-yl]-3,4-dimethyl-1H-pyrazole-5-carboxamide]",< 10000 nM,0.0001 to 1 µM
"Cc1n[nH]c(C(=O)Nc2cnc3[nH]c(-n4cccn4)cc3c2)c1C [P-2112, 3,4-dimethyl-N-(2-pyrazol-1-yl-1H-pyrrolo[2,3-b]pyridin-5-yl)-1H-pyrazole-5-carboxamide]",< 10000 nM,0.0001 to 1 µM
"Cc1cc(C(=O)Nc2cnc3[nH]c(-n4cccn4)cc3c2)[nH]n1 [P-2116, 3-methyl-N-(2-pyrazol-1-yl-1H-pyrrolo[2,3-b]pyridin-5-yl)-1H-pyrazole-5-carboxamide]",< 10000 nM,1 to 10 µM
"Cc1n[nH]c(C(=O)Nc2cnc3[nH]c(-c4cccc(N5CCN(C(=O)C6CC6)CC5)c4)cc3c2)c1C [P-2118, N-[2-[3-[4-(cyclopropanecarbonyl)piperazin-1-yl]phenyl]-1H-pyrrolo[2,3-b]pyridin-5-yl]-3,4-dimethyl-1H-pyrazole-5-carboxamide]",< 10000 nM,0.0001 to 1 µM
"Cc1n[nH]c(C(=O)Nc2cnc3sc(-c4ccccc4)nc3c2)c1C [P-2144, 3,4-dimethyl-N-(2-phenylthiazolo[5,4-b]pyridin-6-yl)-1H-pyrazole-5-carboxamide]",< 10000 nM,1 to 10 µM
"Cc1n[nH]c(C(=O)Nc2cnc3[nH]c(-c4ccc(C(=O)NC5CC5)cc4)cc3c2)c1C [P-2148, N-[2-[4-(cyclopropylcarbamoyl)phenyl]-1H-pyrrolo[2,3-b]pyridin-5-yl]-3,4-dimethyl-1H-pyrazole-5-carboxamide]",< 10000 nM,0.0001 to 1 µM
